Measurements reported in patent US6602854B1, “Branched multimeric Apo A-I agonist compounds” (priority 1997, dated 2003).
Where a SMILES comes first, the peptide text is derived from it. Where no end group is shown, it is not given here. [ ]: non-standard residue; d: D form. Aib = CC(C)(N)C(=O)O

Legend:
[1] = target: T1, LCAT (purified from human plasma) (Homo sapiens, UniProt P04180); experiment: LCAT activation assay; type: biochemical; parameters: ACTIVITY (%) LCAT: concentration or dose not given beside the values; conditions: for LCAT activation: as compared with native ApoA-I (100%); for ACTIVITY (%) LCAT: LCAT activation as compared with native human ApoA-I
T1 construct: from tissue; host or cells: human plasma
T1 sequence (P04180 25-440): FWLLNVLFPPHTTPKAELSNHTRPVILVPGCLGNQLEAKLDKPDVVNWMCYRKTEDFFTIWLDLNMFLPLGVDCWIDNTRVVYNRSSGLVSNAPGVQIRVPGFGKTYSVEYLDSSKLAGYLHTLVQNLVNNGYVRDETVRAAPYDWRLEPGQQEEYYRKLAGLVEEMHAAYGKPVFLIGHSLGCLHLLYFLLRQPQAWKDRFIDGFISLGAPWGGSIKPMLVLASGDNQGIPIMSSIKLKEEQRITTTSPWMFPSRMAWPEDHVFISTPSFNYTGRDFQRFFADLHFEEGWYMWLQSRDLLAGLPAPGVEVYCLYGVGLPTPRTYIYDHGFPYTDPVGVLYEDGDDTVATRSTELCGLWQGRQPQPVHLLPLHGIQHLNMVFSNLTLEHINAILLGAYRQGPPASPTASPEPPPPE
Experimental: The peptides synthesized as described in Section 6, supra, were analyzed in vitro for their ability to activate LCAT. In the LCAT assay, substrate vesicles (small unilamellar vesicles or “SUVs”) composed of egg phophatidylcholine (EPC) or 1-Palmitoyl-2-oleyl-phosphatidyl-choline (POPC) and radiolabelled cholesterol are preincubated with equivalent masses either of peptide or ApoA-I (isolated from human plasma). The reaction is initiated by addition of LCAT (purified from human plasma). Native ApoA-I, which was used as positive control, represents 100% activation activity. “Specific activity” (i.e., units of activity (LCAT activation)/unit of mass) of the peptides can be calculated as the concentration of peptide that achieves maximum LCAT activation. For example, a series of concentrations of the peptide (e.a., a limiting dilution) can be assayed to determine the “specific activity” for the peptide—the concentration which achieves maximal LCAT activation (i.e., percentage conversion of cholesterol to cholesterol ester) at a specific timepoint in the assay (e.g., 1 hr.). When plotting percentage conversion of cholesterol at, e.g., 1 hr., against the concentration of peptide used, the “specific activity” can be identified as the concentration of peptide that achieves a plateau on the plotted curve.
The vesicles used in the LCAT assay are SUVs composed of egg phosphatidylcholine (EPC) or 1-palmitoyl-2-oleyl-phosphatidylcholine (POPC) and cholesterol with a molar ratio of 20:1. To prepare a vesicle stock solution sufficient for 40 assays, 7.7 mg EPC (or 7.6 mg POPC; 10 μmol), 78 μg (0.2 μmol) 4-^14C-cholesterol, 116 μg cholesterol (0.3 μmol) are dissolved in 5 ml xylene and lyophilized. Thereafter 4 ml of assay buffer is added to the dry powder and sonicated under nitrogen atmosphere at 4° C. Sonication conditions: Branson 250 sonicator, 10 mm tip, 6×5 minutes; Assay buffer: 10 mM Tris, 0.14 M NaCl, 1 mM EDTA, pH 7.4). The sonicated mixture is centrifuged 6 times for 5 minutes each time at 14,000 rpm (16,000×g) to remove titanium particles. The resulting clear solution is used for the enzyme assay.
For the LCAT purification, dextran sulfate/Mg^2+ treatment of human plasma is used to obtain lipoprotein deficient serum (LPDS), which is sequentially chromatographed on Phenylsepharose, Affigelblue, ConcanavalinA sepharose and anti-ApoA-I affinity chromatography, as summarized for a representative purification in TABLE IX, below: […]

[2] = Circular dichroism: degree of helicity (free, SUVs, micelles, TFE); conditions: for He (%) free: percent helicity of free, unbound peptide; for He (%) SUVs: percent helicity of peptide-SUV complexes; for He (%) mics: percent helicity of peptide-micelle complexes; for He (%) TFE: percent helicity of peptide-TFE solution
Experimental: Far UV circular dichroism spectra were recorded between 190 and 260 nm (in 0.5 nm or 0.2 nm increments) with a AVIV62DS spectrometer (AVIV Associates, Lakewood, N.J., USA) equipped with a thermoelectric cell holder and sample changer. The instrument was calibrated with (+)-10-camphoric acid. Between one and three scans were collected for each sample, using 10 cm, 5 cm, 1 cm and 0.1 cm path length quartz Suprasil cells, respectively, for peptide concentrations of 10^−7 M to 10^−4 M. The bandwidth was fixed at 1.5 nm and the scan speed to 1 s per wavelength step. The reported data are the mean of at least 2 or 3 independent measurements.
After background substraction, spectra were converted to molar ellipticity (θ) per residue in deg. […] dmol^−1. The peptide concentration was determined by amino acid analysis and also by absorption spectrometry on a Perkin Elmer Lambda 17 UV/Visible spectrophotometer when the peptide contained a chromophore (tryptophane, dansyl, naphtylalanine).
CD spectra were obtained with free, unbound peptide (5 μM in 5 mM phosphate buffer, pH 7.4); with peptide-SUV complexes (20:1 EPC:Chol., Ri=30 and Ri=50); with peptide-micelle complexes (1-myristoyl-2-hydroxy-sn-glycero-3-phosphatidyl choline, Ri=100); and with free, unbound peptide in the presence of 2,2,2-trifluoroethanol (TFE) (5 μM peptide, 90% vol TFE).
The SUVs were obtained by dispersing the lipids (10 mM, 20:1 EPC:Chol., Avanti Polar Lipids, Ala.) in phosphate buffer (5 mM, pH 7.4) with bubbling N2 for 5 min., followed by sonication (1.5 hr.) in a bath sonicator. The homogeneity of the preparation was checked by FPLC.
The micelles were obtained by dispersing the lipid (6 mM 1-myristoyl-2-hydroxy-sn-glycero-3-phosphatidyl choline, Avanti Polar Lipids, AL) in phosphate buffer (5 mM, pH 7.4) with bubbling N2 for 5 min., followed by vortexing.
To obtain the peptide-SUV complexes, SUVs were added to the peptide (5 μM in 5 mM phosphate buffer, pH 7.4) at a phospholipid-peptide molar ratio (Ri) of 30 or 50.
To obtain the peptide-micelle complexes, micelles were added to the peptide (5 μM in 5 mM phosphate buffer, pH 7.4) at a Ri of 100.
All spectra were recorded at 37° C. The stability of peptide 4 (SEQ ID NO:4) as a function of temperature (both free in buffer and in micelles) was determined by recording spectra at a series of different temperatures.
The degree of helicity of peptide 4 (SEQ ID NO:4) as a function of concentration was also determined.
The degree of helicity of the peptides in the various conditions was determined from the mean residue ellipticity at 222 nm (Chen et al., 1974, Biochemistry 13:3350-3359) or by comparing the CD spectra obtained to reference spectra available on databases (16 helical reference spectra from Provencher & Glockner, 1981, Biochemistry 20:33-37; denatured protein reference spectra from Venyaminov et al., 1993, Anal. Biochem. 214:17-24) using the CONTIN curve-fitting algorithm version 2DP, CD-1 pack (Aug. 1982) (Provencher, 1982, Comput. Phys. Commun. 27:213-227, 229-242). Acceptable fit was determined using the statistical analysis methodology provided by the CONTIN algorithm.

[3] = test system: lipidic vesicles (EPC/Chol 5%); experiment: Fluorescence spectroscopy lipid binding; conditions: for I/Io / λmax: peptide 2 μM
Experimental: The lipid binding properties of the peptides synthesized in Section 6, supra, were tested by fluorescence measurements with labeled peptides, in the present case Tryptophane (Trp or W) or Naphtylalanine (Nal). The fluorescence spectra were recorded on a Fluoromax from Spex (Jobin-Yvon) equipped with a Xenon lamp of 150 W, two monochromators (excitation and emission), a photomultiplier R-928 for detection sensitive in the red up to 850 nm and a thermoelectric magnetic stirred cell holder. Quartz Suprasil cuvettes were used for measurements in the micromolar concentration range. A device of variable slits (from 0.4 to 5 nm) allows modulation of the incident and emitted intensities according to the concentration of peptide used. The reported values are in general the average of between 2 to 4 spectra. The peptide concentration is determined by absorption spectrometry on a Philips PU 8800 usng the absorption band of the Trp (ε280 nm=5,550 M^−1cm^−1 in Tris buffer) or the Nal (ε224 nm=92,770 M^−1cm^−1 in methanol).
Fluorescence spectra of the peptides were recorded between 290 nm and 450 nm in Tris-HCl buffer (20 mM, pH=7.5), in the presence and absence of lipidic vesicles. The small unilamellar vesicles were formed after rehydration in buffer of the lyophilized phospholipids, dispersion and tip sonification under a N2 stream. The lipids used were either Egg PC/Chol. (20:1) or POPC/Chol. (20:1). The spectra were recorded at a peptide concentration of 2 μM and at a temperature of 37° C. The fluorescence reference standard in the case of Trp was N-acetyltryptophanylamide (NATA).
Lipid binding studies were done through progressive lipidic vesicle addition to the peptide in solution at 2 μM (slits:5 nm in excitation and 1.5 nm in emission). Dilution effects were taken into account for the fluorescence intensity determination. The lipid concentrations were varied from 10 to 600 μM and the molar ratio of lipid to peptide (Ri) was varied from 5 to 300. The wavelength of excitation was set at 280 nm for both Trp and Nal.
The data were directly recorded and treated by an IBM-PC linked to the spectrofluorimeter through the DM3000F software from Spex. The spectra were corrected by substraction of the solvent contribution and by application of a coefficient given by the constructor taking into account the variation of the photomultiplier response versus the wavelength.
The fluorescence spectra of the peptides were characterized by the wavelength at their maximum of fluorescence emission and by their quantum yield compared to NATA in the case of peptides labeled with a tryptophane. The process of binding to lipids was analyzed by calculating the shift of the wavelength at the maximum of fluorescence emission, (λmax), and the variation of the relative. fluorescence intensity of emission versus the lipid concentration. The relative fluorescence intensity is defined as the following ratio: (I−I0)λmax/I0λmax. I and I0 are both measured at the (λmax) corresponding to the initial free state of the peptide, i.e., without lipids. I is the intensity at a defined lipid to peptide ratio and I0 is the same parameter measured in absence of lipids. The absence of these variations is relevant of the absence of interactions of the peptides with the lipids.

Compound | He (%) free [2] | He (%) SUVs [2] | He (%) mics [2] | ACTIVITY (%) LCAT [1] | He (%) TFE [2] | further results
EWLEAFYKKVLEKLKELF [peptide 18AM4, reference compound] | 18% | 47% | 44% | – | – | LCAT activation [1]: less than 4%
PVLDLFRELLNELZEALKQKLK [peptide 27] | 72% | 82% | 92% | 44% | 81% | –
PVLDLFRELWNELLEALKQKLK [peptide 15, peptide 4 containing a Trp residue at position 10] | 55% | 64% | – | – | 68% | lipid binding (in words) [3]: very high affinity; lipid to peptide molar ratio at maximum burying of the Tryptophane residue [3]: lower than 5; maximum of the Trp emission wavelength when bound to lipidic vesicles ([3]; EPC/Chol 5% vesicles, shifted from 332 nm): 323 nm; I/Io ([3]; Lipid:Peptide Molar Ratio (Ri) 0): 0; λmax ([3]; Ri 0 (buffer, no lipid)): 332 nm; I/Io ([3]; Ri 5): 10.8; λmax ([3]; Ri 5): 323 nm; I/Io ([3]; Ri 10): 13.2; λmax ([3]; Ri 10): 323.5 nm; I/Io ([3]; Ri 30): 17.5; λmax ([3]; Ri 30): 323 nm; I/Io ([3]; Ri 100): 26.4; λmax ([3]; Ri 100): 323 nm; I/Io ([3]; Ri 200): 43.5; λmax ([3]; Ri 200): 323 nm
PVLDLFRELLNLXLEALKEKLK (PVLDLFRELLNL[Aib]LEALKEKLK) [peptide 102, X is Aib; Gln-19 replaced by Glu-19] | – | – | – | – | – | LCAT activation (in words) [1]: did not activate LCAT
pVLDLFRELLNELLEALKQKLKK [peptide 5] | – | – | – | 90% | – | –
CC(=O)N1CCC[C@H]1C(=O)N[C@H](C(=O)N[C@@H](CC(C)C)C(=O)N[C@@H](CC(=O)O)C(=O)N[C@@H](CCC(=O)O)C(=O)N[C@@H](Cc1ccccc1)C(=O)N[C@@H](CCCN=C(N)N)C(=O)N[C@@H](CCC(=O)O)C(=O)N[C@@H](CCCCN)C(=O)N[C@@H](CC(C)C)C(=O)N[C@@H](CC(N)=O)C(=O)N[C@@H](CCC(=O)O)C(=O)N[C@@H](CCC(=O)O)C(=O)N[C@@H](CC(C)C)C(=O)N[C@@H](CCC(=O)O)C(=O)N[C@@H](C)C(=O)N[C@@H](CC(C)C)C(=O)N[C@@H](CCCCN)C(=O)N[C@@H](CCC(N)=O)C(=O)N[C@@H](CCCCN)C(=O)N[C@@H](CC(C)C)C(=O)N[C@@H](CCCCN)C(N)=O)C(C)C [Segrest's consensus 22-mer, reference compound] (Ac-PVLDEFREKLNEELEALKQKLK-NH2) | – | – | – | 10% | – | LCAT activation [1]: 10%
pVLDLFRELLNELLEALKQKLK [peptide 21] | – | – | – | 57% | – | –
pVLDLFRELLNEGLEALKQKLK [peptide 19] | – | – | – | 58% | – | –
PVLDLFRELLNELLEAZKQKLK [peptide 10] | 60% | 70% | 87% | 79% | 71% | –
PVLDLFRELLNELLEALOQOLO [peptide 14] | 70% | 80% | 96% | 61% | – | –
